Values of other authors as cited in patent publication US20070053923A1, “Dna vaccine composition with enhanced immunogenicity” (priority 2003, published 2007).

System: immune cells
Details: via FPR and FPRL1, as reported

WKYMVM-NH2
Activation of immune cells: potent activator of immune cells
